Assay results taken from patent publication US20100111908A1, “Induction of Renal Cells for Treatment of Kidney Disease” (priority 2008, published 2010).

How the values were obtained:
CaR = target: T1, CaR (Homo sapiens, UniProt P41180); settings: activation of CaR; Olszak et al., 2000; cited from earlier work
T1 construct: host or cells: monocytes
T1 sequence (P41180 20-1078): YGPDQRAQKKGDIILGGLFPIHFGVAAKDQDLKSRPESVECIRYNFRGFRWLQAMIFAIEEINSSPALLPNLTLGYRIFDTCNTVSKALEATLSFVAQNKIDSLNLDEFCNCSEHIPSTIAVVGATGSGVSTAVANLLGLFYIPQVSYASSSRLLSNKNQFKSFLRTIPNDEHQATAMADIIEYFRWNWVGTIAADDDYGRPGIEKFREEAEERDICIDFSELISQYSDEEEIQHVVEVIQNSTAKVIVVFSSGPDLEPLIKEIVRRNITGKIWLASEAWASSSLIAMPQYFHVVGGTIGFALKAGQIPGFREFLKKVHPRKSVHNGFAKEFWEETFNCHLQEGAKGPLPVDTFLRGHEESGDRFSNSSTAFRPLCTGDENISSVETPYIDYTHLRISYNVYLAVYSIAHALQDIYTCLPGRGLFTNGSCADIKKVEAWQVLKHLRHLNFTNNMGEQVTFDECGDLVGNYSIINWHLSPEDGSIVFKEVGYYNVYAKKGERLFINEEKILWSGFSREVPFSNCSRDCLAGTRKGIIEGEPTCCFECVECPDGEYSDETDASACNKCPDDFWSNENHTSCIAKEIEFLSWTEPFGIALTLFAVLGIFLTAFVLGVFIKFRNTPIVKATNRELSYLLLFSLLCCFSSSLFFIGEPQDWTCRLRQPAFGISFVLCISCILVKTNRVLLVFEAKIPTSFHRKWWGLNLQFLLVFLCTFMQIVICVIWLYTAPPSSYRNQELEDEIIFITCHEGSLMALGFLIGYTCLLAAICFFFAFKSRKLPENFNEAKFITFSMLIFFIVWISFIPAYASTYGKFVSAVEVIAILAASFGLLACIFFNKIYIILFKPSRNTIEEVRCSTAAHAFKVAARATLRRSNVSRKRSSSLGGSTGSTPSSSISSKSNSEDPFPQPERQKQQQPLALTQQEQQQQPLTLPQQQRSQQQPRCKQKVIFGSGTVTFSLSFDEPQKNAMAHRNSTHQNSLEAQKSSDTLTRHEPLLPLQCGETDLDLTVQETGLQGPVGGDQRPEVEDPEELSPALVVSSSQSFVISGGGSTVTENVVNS

Lin− cells [1] = assay: qRT-PCR of renal developmentally regulated genes in induced cells; type: cell-based, mouse; settings: TSA 15 nM, 6 h at 2nd stage vs vehicle, cells after 3rd stage
Experimental: Lin^− cells, which include lineage undifferentiated hematopoietic stem cells and progenitor cells, were isolated to 99.8% purity by FACS as described (Lin et al., 2003). Purified Lin^− cells were cultured sequentially in the presence of cytokines including IL-3, IL-6, and stem cell factor for 48 hr (1st stage); nephrogenic factors including retinoic acid, activin-A and BMP7 for 48 hr (2nd stage); and epithelial growth factors including EGF, IGF-1 and HGF for 72 hr (3rd stage). The total induction period is 1 week. Cytokine treatment is known to stimulate HSC to enter the cell cycle and the cells remain as hematopoietic cells after 48 hr in these culture conditions (Luskey et al., 1992; Reddy et al., 1997). The nephrogenic factors that were used can induce differentiation of mouse ES cells into renal epithelial cells as reported by Kim and Dressler (2005). Therefore, the inventors reasoned that nephrogenic factors might induce cycling Lin^− cells to select a renal cell fate. Further treatment of the cells with epithelial growth factors would promote epithelial growth. After the 1st stage, the cells remained small, round, and discrete (FIG. 5B, top left). After the 3rd stage, the cells increased in size and formed floating spheres (FIG. 5B, top right). The inventors took the precaution of only transferring cells in suspension to new culture dishes. The adherent cells that might represent bone marrow stromal/stem cells (MSC) were discarded. In some experiments, the inventors continued the cultures for an additional 7 days after the induction period (total 14 days) and observed an epithelial-like morphology in the cells (FIG. 5B, bottom). In the Examples section, the inventors will use the term “induced cells” to refer to cells after the 3rd stage culture (1 week induction).
(§1) The HDAC inhibitor TSA increases expression of renal developmentally regulated genes in induced cells. Although HDAC inhibitor trichostatin A (TSA) is a non-selective inhibitor of HDACs, TSA only alter 2-10% of the genes tested in multiple cell lines (Gray et al., 2004; Lee et al., 2006b; Mitsiades et al., 2004; Peart et al., 2005).

[2] = system: Lin− cells isolated from cre^ksp; R26R-EYFP mice; assay: Flow cytometry of EYFP+ cells (renal cell conversion); type: cell-based, mouse; settings: TSA 15 nM, 6 h at 2nd stage
Experimental: To confirm renal conversion, Lin^− cells were isolated from bitransgenic creksp; R26R-EYFP mice that express EYFP specifically in the tubular epithelial cells of the kidney. […] However, after the 3rd stage, the induced cells expressed EYFP mRNA by RT-PCR analysis (FIG. 7B) and EYFP protein by immunostaining (FIG. 7C).
Treatment with TSA results in a 6-fold increase in EYFP^+ cells. Lin^− cells isolated from cre^ksp; R26R-EYFP mice were treated with vehicle or TSA (15 nM, 6 h) at the 2nd stage and EYFP^+ cells were quantified by flow cytometry analysis.

[3] = system: cadherin 6, cadherin 16, Lim1, Gdnf and Pax2 promoters; assay: ChIP assay of histone acetylation on renal gene promoters; type: cell-based, mouse; settings: TSA 15 nM, 6 h at 2nd stage vs vehicle; ChIP after 3rd stage
Text: Increased histone acetylation accompanies cell conversion. To begin to understand the mechanisms of cell conversion and its associated nuclear reprogramming, the inventors examined the possibility of epigenetic regulation by histone modifications and chromatin remodeling. Chromatin modifications were detected using chromatin immunoprecipitation assays (ChIP assays) as described (Shang et al., 2000). Antibodies to acetylated histones H3 and H4 and tri-methylated histone H3 (lysine 9 or K9) were used for immunoprecipitation. […] In contrast, there was no change in tri-methylation of H3K9 on the cadherin 6 promoter (top panel). Acetylation of H3 but not H4 on the cadherin 16 promoter was increased after the 3rd stage. Tri-methylation of H3K9 on the cadherin 16 promoter seemed to increase after the 3rd stage.
as §1

Lin− cells [4] = assay: Cell death in 2nd stage induction culture; type: cell-based, mouse; settings: about 15 nM, 6 hr in the 2nd stage
Text: Use of HDAC inhibitors may take into account the fact that high dose and/or long period of HDAC inhibition may induce widespread changes in gene expression. For example, treatment of metanephric organs cultures with HDAC inhibitor induces significant disturbance in the transcription network (Chen et al., 2007).

[5] = system: lymphoid cell line / multiple cell lines; settings: cited from earlier work
bone marrow stem cells = settings: Tayaramma et al., 2006; cited from earlier work
HDAC = settings: Vigushin et al., 2001, cited from earlier work

Row | Structure (SMILES) | monocyte migration in response to calcium (CaR) | Cdh 6 -Fold increase (Lin− cells [1]; *p<0.05, n=3) | Cdh 16 -Fold increase (Lin− cells [1]; *p<0.05, n=3) | Gdnf -Fold increase (Lin− cells [1]; *p<0.05, n=3) | Lim1 -Fold increase (Lin− cells [1]; *p<0.05, n=3) | Osr 1 -Fold increase (Lin− cells [1]; *p<0.05, n=3) | Pax2 -Fold increase (Lin− cells [1]; *p<0.05, n=3) | 18s RNA -Fold increase (Lin− cells [1]; control gene, n=3) [Fold] | Six2 -Fold increase (Lin− cells [1]; n=3) [Fold] | increase in EYFP+ cells (cell conversion) vs vehicle [2] [fold] | EYFP+ cells after the 3rd stage ([2]; flow cytometry, vehicle group 6.3%) [%] | histone H3 and H4 acetylation on promoters of renal genes [3] | cell death (Lin− cells [4]) | proportion of expressed genes altered ([5]; 340 expressed genes in a lymphoid cell line, Van Lint et al., 1996) [%] | proportion of genes tested altered ([5]; multiple cell lines, literature) | differentiation of insulin-producing cells (bone marrow stem cells) | IC50 of inhibition of HDAC activity (HDAC) | reversibility of inhibition of HDAC activity (HDAC; in cell cultures and in vivo)
1 | COc1cccc([C@@H](C)NCCCc2ccccc2)c1 [NPS R-467] | increases | – | – | – | – | – | – | – | – | – | – | – | – | – | – | – | – | –
2 | CC(/C=C/C(=O)NO)=C\[C@@H](C)C(=O)c1ccc(N(C)C)cc1 [TSA, trichostatin A] | – | 16.5* Fold | 4.39* Fold | 5.39* Fold | 8.29* Fold | 14.95* Fold | 3.28* Fold | −0.06 | 1.3 | 6 | 37.9 | increased histone H3 and H4 acetylation | no increase in cell death | 2 | 2-10% | led to differentiation of insulin-producing cells | nanomolar range | reversible
